The values below come from ChEMBL document CHEMBL1687702, “Discovery of New Human A(2A) Adenosine Receptor Agonists: Design, Synthesis, and Binding Mode of Truncated 2-Hexynyl-4'-thioadenosine” (ACS Med Chem Lett, 2010).

In experiment [1] the target is T1, Adenosine receptor A2a (Homo sapiens, UniProt P29274). The experiment is described as follows: Displacement of [3H]CGS21680 from human adenosine A2A receptor in HEK293 cells at 10 uM. The class given is cell-based.
For experiment [2], the target named is T2, Adenosine receptor A1 (Homo sapiens) (UniProt P30542).
T2 sequence (whole entry): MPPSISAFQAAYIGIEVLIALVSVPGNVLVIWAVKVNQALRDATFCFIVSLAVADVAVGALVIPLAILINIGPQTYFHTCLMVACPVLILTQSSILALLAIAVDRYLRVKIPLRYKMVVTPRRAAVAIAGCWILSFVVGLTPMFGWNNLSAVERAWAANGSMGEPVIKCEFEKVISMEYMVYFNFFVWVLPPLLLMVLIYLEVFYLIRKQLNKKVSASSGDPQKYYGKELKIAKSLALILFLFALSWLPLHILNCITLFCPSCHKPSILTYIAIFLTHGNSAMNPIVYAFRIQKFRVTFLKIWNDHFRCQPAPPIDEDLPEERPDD
The experiment is described as follows: Displacement of [3H]CCPA from human adenosine A1 receptor expressed in CHO cells at 10 uM. The class given is cell-based. In general terms: In a radioligand displacement assay an active substance lowers the binding of a labelled ligand.

Another experiment deals with T3, Adenosine receptor A3 (Homo sapiens, UniProt P0DMS8).
T3 sequence (P0DMS8 whole entry): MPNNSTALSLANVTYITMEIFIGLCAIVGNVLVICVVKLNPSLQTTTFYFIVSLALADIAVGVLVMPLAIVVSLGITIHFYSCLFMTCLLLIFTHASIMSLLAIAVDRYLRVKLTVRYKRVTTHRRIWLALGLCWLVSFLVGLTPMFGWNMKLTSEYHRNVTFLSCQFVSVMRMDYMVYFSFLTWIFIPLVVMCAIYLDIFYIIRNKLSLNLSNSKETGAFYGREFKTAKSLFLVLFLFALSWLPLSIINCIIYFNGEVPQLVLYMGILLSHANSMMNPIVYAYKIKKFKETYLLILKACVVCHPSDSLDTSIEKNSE
The experiment is described as follows: Displacement of [125I]I-AB-MECA from human adenosine A3 receptor expressed in CHO cells […]. The class given is cell-based.

Experiment [3] deals with T1, Adenosine receptor A2a. The experiment is described as follows: Agonist activity at human adenosine A2A receptor expressed in CHO cells by cyclic AMP functional assay. The class given is cell-based.
Experiment [4] addresses T4, Adenosine receptor A3 (Homo sapiens) (UniProt P0DMS8).
T4 sequence (whole entry): T3 sequence (P0DMS8 whole entry)
Description: Antagonistic activity at human adenosine A3 receptor expressed in CHO cells assessed as inhibition of Cl-IB-MECA mediated cyclic AMP production by Schild assay. The class given is functional, cell-based.

For the next experiment, the target named is T5, Adenosine receptor A2b (Homo sapiens, UniProt P29275).
T5 sequence (P29275 whole entry): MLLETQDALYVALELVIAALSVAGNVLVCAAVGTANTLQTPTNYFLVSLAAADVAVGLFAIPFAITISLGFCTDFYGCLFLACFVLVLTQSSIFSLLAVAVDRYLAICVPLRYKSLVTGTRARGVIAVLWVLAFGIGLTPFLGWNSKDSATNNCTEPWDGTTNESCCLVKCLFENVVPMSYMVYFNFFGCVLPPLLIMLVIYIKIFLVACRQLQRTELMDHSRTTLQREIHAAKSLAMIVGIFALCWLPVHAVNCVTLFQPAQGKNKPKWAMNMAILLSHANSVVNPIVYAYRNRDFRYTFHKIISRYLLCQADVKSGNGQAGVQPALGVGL
Description: Agonist activity at human adenosine A2B receptor expressed in CHO cells by cyclic AMP functional assay. The class given is cell-based.

For experiment [5], the target named is T1, Adenosine receptor A2a. Description: Displacement of [3H]CGS21680 from human adenosine A2A receptor in HEK293 cells. Format: cell-based.

Molecules are shown by their SMILES.

T1 sequence (P29274 whole entry): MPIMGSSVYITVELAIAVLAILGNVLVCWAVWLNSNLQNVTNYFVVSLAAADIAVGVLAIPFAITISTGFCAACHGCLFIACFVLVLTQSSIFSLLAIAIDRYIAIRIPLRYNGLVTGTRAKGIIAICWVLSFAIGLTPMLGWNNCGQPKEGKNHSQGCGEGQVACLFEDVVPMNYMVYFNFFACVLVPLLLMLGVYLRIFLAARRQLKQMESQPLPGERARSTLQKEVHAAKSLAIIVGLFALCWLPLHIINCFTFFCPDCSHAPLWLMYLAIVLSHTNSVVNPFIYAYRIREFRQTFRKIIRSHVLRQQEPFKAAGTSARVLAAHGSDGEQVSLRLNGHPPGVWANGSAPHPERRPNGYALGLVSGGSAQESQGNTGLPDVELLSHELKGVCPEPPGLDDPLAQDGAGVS

For orientation: inhibition means the change of the read-out against control, counted positive when it falls. Read a low inhibition as little suppression. The Ki is a dissociation constant, usually derived from enzyme kinetics or from competition with a known ligand. For `CCCC/C=C/c1nc2c(N)ncnc2n1[C@@H]1SC[C@@H](O)[C@H]1O`, the inhibition was 22.8% on Adenosine receptor A2a [1] and 3.7% in experiment [2]. Also, on Adenosine receptor A3, the Ki was 259 nM.
What is called EC50 is the concentration giving half of the maximal effect. The low end stands for an effect from little substance, the high end for a need for much substance. As a reminder, the Kb is the affinity of an antagonist, worked out from how it opposes an agonist. Take `CCCCC#Cc1nc(N)c2ncn([C@@H]3SC[C@@H](O)[C@H]3O)c2n1`: the inhibition came to 97.2% at Adenosine receptor A2a [1] and 38.9% in experiment [2]. Further, the figures for the EC50 at Adenosine receptor A2a [3] and on Adenosine receptor A2b were 12 nM and 10000 nM, respectively. Also, the Kb in experiment [4] came to 1.69 nM.
Turning to `CCCC/C=C/c1nc(N)c2ncn([C@@H]3SC[C@@H](O)[C@H]3O)c2n1`, the inhibition turned out to be 95.9% on Adenosine receptor A2a [1] and 16.2% in experiment [2]. For the same compound, the Ki stood at 72 nM at Adenosine receptor A2a [5] and 13.2 nM at Adenosine receptor A3.
As for `CCCCC#Cc1nc2c(N)ncnc2n1[C@@H]1SC[C@@H](O)[C@H]1O`, the inhibition stood at 46.5% on Adenosine receptor A2a [1] and 49.3% in experiment [2]. On Adenosine receptor A3, the Ki turned out to be 20 nM.
